Reference: patent EP0569096A1, “Depot preparation” (Akzo Nobel N.V., priority 1992, dated 1993)
Structures can show the parent of a compound that is named as a salt.

Key:
physchem = conditions: water
[1] = water solubility of the salts; conditions: general statement in the disclosure of the invention
[2] = stability of the crystalline form compared with the amorphous solid; format: physicochemical; conditions: crystals formed after storage for two weeks at 50° C
Procedure: (§1) The pamoate salt of EXAMPLE I was stored for two weeks at 50° C, and crystals spontaneously formed. […] Furthermore they were easier to segregate for micronization, and easier to form a suspension with.

[3] = solubility of the crystalline form compared with the amorphous solid; format: physicochemical; conditions: crystals formed after storage for two weeks at 50° C
Procedure: as §1

CN1C[C@H]2c3ccccc3Oc3ccc(Cl)cc3[C@@H]2C1 (relative stereo) [fumarate]
solubility (physchem): 1000 µg/mL

CN1C[C@H]2c3ccccc3Oc3ccc(Cl)cc3[C@@H]2C1 (relative stereo) [pamoate salt]
solubility (in words) [1]: very insoluble

CN1C[C@@H]2c3ccccc3Oc3ccc(Cl)cc3[C@H]2C1.O=C(O)c1cc2ccccc2c(Cc2c(O)c(C(=O)O)cc3ccccc23)c1O [crystals]
stability relative to the amorphous yellow solid [2]: more stable | solubility relative to the amorphous yellow solid [3]: less soluble

CN1CC2c3ccccc3Oc3ccc(Cl)cc3C2C1.CN1CC2c3ccccc3Oc3ccc(Cl)cc3C2C1.O=C(O)c1cc2ccccc2c(Cc2c(O)c(C(=O)O)cc3ccccc23)c1O [hemipamoate]
solubility (in words) [1]: very insoluble
